Data on 38 molecules can be found in ChEMBL document CHEMBL3507680, “University of Dundee, Gates Library screen for HepG2 cell viability”.

Structures are written as SMILES.

This data set in a line: Human HepG2 cell viability assay in 384 well format. Type of data set: toxicity, cell-based. More on the design: dose 125 nL, time 70.5 hour; cytotoxicity at 70.5 h: concentration not given beside the values. The note with it: HepG2 cells, read-out: Inhibition.
With `COC(=O)CSc1nnc(CCNC(=O)OC(C)(C)C)o1`, the cytotoxicity at 70.5 h is -4.92%. The value for `O=S1(=O)CCC(c2nnc(-c3cnc4onc(C5CC5)c4c3)o2)C1` (stereo not drawn) was -2.78%; that for `CCn1c(CN2CCOC(Cn3cccn3)C2)nc2c(F)cccc21` (stereo not drawn) was -3.89%; that for `Cc1nc(CN2C(=O)CC[C@@H]3[C@H]2CCN3C2CCOC2)cs1` (stereo partly drawn) was 1.29%. The result for `CN1CCCN(c2nccc(-c3c[nH]nc3-c3ccncc3)n2)CC1` reads -3.42%; that for `CCC1=NN2C(=N)/C(=C\c3cccn3-c3ccc(Br)cc3)C(=O)N=C2S1`, 3.19%. The value for `CCCC(C(=O)NC1CCN(S(C)(=O)=O)CC1)n1cccc1` (stereo not drawn) was -3.64%; that for `CCN(CC)C(=O)CNC(=O)c1cnc(-c2ccccc2)nc1` was -2.98%; that for `COc1cc(C)c(CN2CCc3nc4ccsc4c(=O)n3CC2)cc1C` was 0.311%. Turning to `Cc1cc(C)n(CC2CCCN2C(=O)c2ccc3[nH]c(=O)[nH]c3c2)n1` (stereo not drawn), the cytotoxicity at 70.5 h is -17.4%. `CNS(=O)(=O)c1ccc(C(=O)N2CCCC2c2ccccc2C)o1` (stereo not drawn): the cytotoxicity at 70.5 h is -1.59%. `Cc1nc(C)n(CC2CN(S(C)(=O)=O)Cc3nccn3C2)n1` (stereo not drawn): the cytotoxicity at 70.5 h was 9.77%. On to `CN1CCc2ncc(CNc3cc(N(C)C)ncn3)n2CC1`, for which the cytotoxicity at 70.5 h was -11.9%. The value for `CCn1cc(S(=O)(=O)NCc2ccnc(-n3ccnc3)c2)cn1` was -6.31%; that for `Cc1cn2nc(N3CCN(Cc4c(C)noc4C)CC3)sc2n1` was 0.994%. The result for `CC(=O)N1CCC(c2cnc(-c3c(C)nn(C)c3C)cn2)CC1` reads -9.85%; that for `CCOCCNC(=O)C(CCSC)NC(=O)c1ccc2ccccc2n1` (stereo not drawn), 5.06%.

Take `CCc1[nH]ncc1C(=O)N1CCCC(n2ccnc2C(C)C)C1` (stereo not drawn): the cytotoxicity at 70.5 h is 1.64%. The result for `CC(C)n1c(C2CCCN(CC(N)=O)C2)nc2ccccc21` (stereo not drawn) reads -1.68%; that for `COc1cccc(-c2n[nH]c3c2CN(C(=O)c2cccc(=O)[nH]2)CC3)c1`, -6.52%; that for `COc1ccc(CN(C)C(=O)NCc2c(C)cc(C)[nH]c2=O)cc1`, -4.65%. The result for `Cc1ncsc1CNCC(C)c1nc2ccccc2o1` (stereo not drawn) reads -7.51%; that for `CC(=O)N(c1ccc(C)cc1)c1nc(CN2CCCCC2C)cs1` (stereo not drawn), 16.8%.

Turning to `O=C(Nc1ccccc1OC(F)(F)F)C1CCS(=O)(=O)C1` (stereo not drawn), the cytotoxicity at 70.5 h is -9.01%. The result for `CC(C)CN1CCC(N2CCC(C(=O)N(C)C)CC2)CC1` reads 3.98%; that for `O=C(c1ccco1)N1CCN2C[C@H](OCc3cccnc3)C[C@H]2C1`, -12.3%; that for `O=C(O)C1(n2cccn2)CCN(c2nc(-c3ccccc3)no2)CC1`, 0.502%. On to `CC(C(=O)NCc1ccc(N2CCN(C)CC2)nc1)n1cccn1` (stereo not drawn), for which the cytotoxicity at 70.5 h is -6.16%. The result for `Cc1ccc(CN2CC[C@H]3CO[C@H](CN(C)Cc4ccco4)[C@H]3C2)s1` reads 4.82%; that for `COc1ccc2c(ccn2CC(=O)NC[C@@H]2CCCN3CCCC[C@H]23)c1`, -7.27%. The result for `COCCN(C)C[C@@H]1CCC[C@@H]2CN(Cc3ccc(OC)nc3)C[C@@H]21` reads 0.0071%; that for `COc1ccc(C2CCCN2S(=O)(=O)N(C)C)cc1` (stereo not drawn), -6.59%; that for `COc1ccccc1Oc1ncccc1CNC(=O)[C@@H](N)CCO`, 8.7%. The value for `N#Cc1c(N2CCCN(C3CCOCC3)CC2)nc2ccccn12` was -2.26%; that for `Cc1csc(N(C)C(=O)C2CC(=O)N(c3ccccc3F)C2)n1` (stereo not drawn) was -0.144%; that for `CCNC(=O)CN1CCSC2(CCCCC2)C1` was -11.1%. On to `O=C1CCCN1CCCN1CCCC(Cn2cncn2)C1` (stereo not drawn), for which the cytotoxicity at 70.5 h turned out to be 3.37%. As to `CC1CCCCN1CCNC(=O)c1ccn(-c2ccc(F)cc2)n1` (stereo not drawn), the cytotoxicity at 70.5 h came to 35.6%.
